Experimental data reported in article PMC12362587, “Untargeted Diversity-Oriented Synthesis for the Discovery of New Antitumor Agents: An Integrated Approach of Inverse Virtual Screening, Bioinformatics, and Omics for Target Deconvolution” (Journal of Medicinal Chemistry, 2025).

Key:
[1] = target: T1, isocitrate dehydrogenase (IDH1 R132H) (Homo sapiens, UniProt O75874, R132H); assay: IDH1 enzyme assay (R132H; BPS Bioscience); type: biochemical; conditions: top concentration 30 μM
T1 construct: purchased BPS Bioscience
Method: The assay was performed in a volume of 100 μL in a 96-well black plate. The IDH1 enzyme assay (R132H; BPS Bioscience, USA) was designed to measure IDH1 enzyme activity by measuring NADPH consumption. For activity measurement, the enzyme (final concentration, 2.5 ng per reaction), α-ketoglutarate (IDH1 substrate; final concentration, 4 mM), NADPH (final concentration, 500 μM), and compounds were incubated for 1 h at room temperature. The compounds were added at different concentrations in the reaction buffer, starting from a final concentration of 30 μM. Buffer with the same amount of DMSO (1%) was used as a negative control. After the incubation time, NADPH detection reagent was added for 5 min at room temperature. The fluorescence signals (excitation/emission, 544 nm/600 nm) were read using a PerkinElmer EnSpire multimode plate reader (PerkinElmer, Waltham, MA, USA). The experiments were performed in triplicate. The IC50 values were calculated using GraphPad Prism 8.0 software by nonlinear regression of dose–response inhibition.

[2] = target: human CB2R (Homo sapiens, UniProt P34972); assay: cAMP Hunter assay, functional activity at CB2R; type: cell-based; parameters: host or cells: CHO-K1; conditions: CHO cells expressing human CB2R, alone and with JWH133
Method: The curves show the effect of increasing concentrations of the compound on NKH-477-induced cAMP levels in stable CHO cells expressing the human CB2R. The effect of JWH-133 is reported as a reference compound. Data are reported as means ± standard error of three independent experiments conducted in triplicate and normalized considering the NKH-477 stimulus alone as 100% of the response as indicated in the experimental session. EC50 was determined by GraphPad Prism 9 as the concentration that provokes the response halfway between the baseline (bottom) and maximum response (top) of the fitted dose–response.
The functional activity at CB2Rs was evaluated using the cAMP Hunter assay with an enzyme fragment complementation chemiluminescent detection kit, as previously reported. Following the manufacturer’s instructions, this assay measured Gi-coupled cAMP modulation in CB2R-expressing cell lines (DiscoveRx, Fremont, CA). Briefly, CHO-K1 cells overexpressing the human CB2Rs were plated in a 96-well plate at a density of 10,000 cells per well and incubated overnight at 37 °C in 5% CO2. […] Following stimulation, the cells were lysed, and cAMP levels were detected according to the manufacturer’s protocol. Luminescence was measured using the GloMax Multi-Detection System (Promega, Italy). Results were expressed as mean ± SEM and derived from three independent experiments conducted in triplicate. […]

T1 sequence (O75874 whole entry R132H): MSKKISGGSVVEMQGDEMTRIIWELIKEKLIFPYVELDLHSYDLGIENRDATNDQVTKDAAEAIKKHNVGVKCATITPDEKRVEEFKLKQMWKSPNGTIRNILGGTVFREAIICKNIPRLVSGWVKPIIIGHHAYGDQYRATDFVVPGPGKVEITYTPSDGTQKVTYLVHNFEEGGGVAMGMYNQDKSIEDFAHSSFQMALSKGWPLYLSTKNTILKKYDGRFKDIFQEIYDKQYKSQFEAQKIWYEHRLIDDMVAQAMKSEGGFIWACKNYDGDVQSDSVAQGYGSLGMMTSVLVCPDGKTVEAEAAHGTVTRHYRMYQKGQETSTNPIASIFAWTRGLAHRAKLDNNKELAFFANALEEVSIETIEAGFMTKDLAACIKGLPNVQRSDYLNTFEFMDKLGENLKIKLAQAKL
Chain of human CB2R (P34972 whole entry): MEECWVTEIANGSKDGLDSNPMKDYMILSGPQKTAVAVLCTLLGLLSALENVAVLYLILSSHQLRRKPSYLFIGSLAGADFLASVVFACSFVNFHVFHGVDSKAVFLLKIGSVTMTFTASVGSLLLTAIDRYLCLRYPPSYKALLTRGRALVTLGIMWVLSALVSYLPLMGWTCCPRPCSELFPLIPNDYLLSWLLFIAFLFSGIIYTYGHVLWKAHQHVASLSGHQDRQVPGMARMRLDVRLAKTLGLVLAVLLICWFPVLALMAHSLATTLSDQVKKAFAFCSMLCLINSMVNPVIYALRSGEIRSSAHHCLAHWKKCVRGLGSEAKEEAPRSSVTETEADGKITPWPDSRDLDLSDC

CC(C)C[C@H]1C(=O)N(Cc2ccc(C(F)(F)F)cc2)c2ccccc2C(=O)N1Cc1ccc(C(F)(F)F)cc1 [Compound 31, (S)-3-Isobutyl-1,4-bis(4-(trifluoromethyl)benzyl)-3,4-dihydro-1H-benzo[e][1,4]diazepine-2,5-dione]
IC50 ([1]; read-out: EC50 or IC50, isocitrate dehydrogenase): 14.9 ± 2.12 µM

CC(C)C[C@@H](C(=O)OCc1ccccc1)N1Cc2ccccc2NC1=O [Compound 63, Benzyl (S)-4-Methyl-2-(2-oxo-1,4-dihydroquinazolin-3(2H)-yl)pentanoate]
EC50 or IC50, isocitrate dehydrogenase [1]: not soluble | functional activity at CB2R (NKH-477-induced cAMP levels) [2]: functional inverse agonist activity
